Data as given in PMC6544596 (Drugs in R&D, 2019).
Like-named read-outs stand apart in the source and are kept apart here.

Assays:
[1] = Pharmacokinetics of a single intraperitoneal dose in mice; assay type: in vivo, C57BL/6J mice; details: for CNS penetrance (in words): Fig. 8 summary of kinetics profiling in animal models; for time after administration at which agents are completely washed out of the brain: IP administration; for Tmax: brain and plasma; for Kp: brain/plasma
A53T mice = test: α-Synuclein, HVA and dopamine levels in transgenic A53T mice; assay type: in vivo, mouse
APP mice = test: Aβ and tau levels in transgenic APP mice; assay type: in vivo, mouse; details: 3 consecutive weeks; for Insoluble human Aβ vs DMSO (in words): p < 0.01, 0.001
Abl = details: read-out: IC50 Abl; cited from earlier work
DDR1/2 = details: read-out: IC50 DDR1/2; cited from earlier work
SRC = details: cited from earlier work; for IC50: read-out: IC50 SRC
PDGFR-α = details: cited from earlier work
PDGFR-β = details: cited from earlier work; for IC50: read-out: IC50 PDGFR-β
c-Kit = details: read-out: IC50 c-Kit; cited from earlier work
[2] = test system: rat B35 neuroblastoma transfected with Aβ42; test: Aβ42 ELISA in Aβ42-transfected B35 neuroblastoma cells; assay type: cell-based; details: 10 µM, 24 h
DDR2 = details: read-out: IC50 DDR2; cited from earlier work
[3] = male, C57BL/6J, mouse, ip, 5 mg/kg
[4] = male, C57BL/6J, mouse, plasma, ip, 5 mg/kg
[5] = single IP dose 1.25 mg/kg, mice
[6] = male, C57BL/6J, mouse, ip, 10 mg/kg
[7] = male, C57BL/6J, mouse, plasma, ip, 10 mg/kg
[8] = 12-month-old A53T mice, 5 mg/kg IP once daily, 3 consecutive weeks
[9] = 4- to 7-month-old APP mice, 10 mg/kg IP

CNS penetrance (in words) [1]	time after administration at which agents are completely washed out of the brain ([1]; mice)	Tmax [1, 3]	Kp [1, 3]	AUC [1, 4]	Cmax [1, 4]	AUC Brain ([1]; single IP dose 5 mg/kg, mice)	C max Brain ([1]; single IP dose 5 mg/kg, mice)	Tmax [1, 6]	AUC [1, 7]	Cmax [1, 7]	Compound	IC50 (Abl)	IC50 (DDR1/2)	inhibition of Src (SRC)	IC50 (SRC)	IC50 (c-Kit)	IC50 (PDGFR-α; read-out: IC50 PDGFR-α)	IC50 (PDGFR-β)	effect on total tau levels (in words) (APP mice; [9])	Insoluble human Aβ vs DMSO (in words) (APP mice; [9])	also measured
high	4 to 5 h	1 h	0.12	69.5 µM·h	19.4 µM	4.193	2.362 µM				Cc1ccc(NC(=O)c2ccc(CN3CC[C@H](N(C)C)C3)c(C(F)(F)F)c2)cc1Nc1nccc(-c2cncnc2)n1 [Bafetinib]	0.0058 µM	0.22 µM	do not appear to inhibit Src	1.7 µM						levels of α-syn measured via ELISA (in words) (A53T mice; A53T mice, 10, 5 or 2.5 mg/kg IP daily): did not reduce; ELISA homovanillic acid and dopamine measurements (in words) (A53T mice; A53T mice, bafetinib treatment IP daily): remain unchanged; reduction of the level of soluble Aβ40 compared to DMSO (APP mice; APP mice, 5 mg/kg IP): 9%; reduction in the insoluble Aβ42 compared with DMSO (APP mice; APP mice, 5 mg/kg IP, not significant): 17%; total tau levels compared with DMSO-treated APP mice (in words) (APP mice; APP mice, bafetinib 5 mg/kg or LCB 2.5 mg/kg IP): significant reduction; IC50 (PDGFR-α; read-out: IC50 to PDGFRα): 0.056 µM; affinity to PDGFRβ (PDGFR-β): no affinity
								1 h	174 µM·h	33.7 µM	Cc1cn(-c2cc(NC(=O)c3ccc(C)c(Nc4nccc(-c5cccnc5)n4)c3)cc(C(F)(F)F)c2)cn1 [Nilotinib]	[…]	< 0.006 µM	do not appear to inhibit Src			< 0.071 µM	< 0.06 µM	no effect	significantly decreased	reduction of phospho-tau (ser396) compared with DMSO (APP mice; [9]): 28%; Aβ42 (ELISA) in Aβ42-transfected B35 cells (in words) [2]: reduce Aβ42; IC50 (DDR2): […]
medium-to-high	[…]	[…]	[…]	51.7 µM·h	19.4 µM	1.996	0.918 µM				COc1cc(Nc2c(C#N)cnc3cc(OCCCN4CCN(C)CC4)c(OC)cc23)c(Cl)cc1Cl [Bosutinib]	[…]	> 4.9 µM		[…]						

The remaining lines, values behind:

Compound	CNS penetrance (in words) [1]	time after administration at which agents are completely washed out of the brain ([1]; mice)	Tmax [1, 3]	Kp [1, 3]	AUC [1, 4]	Cmax [1, 4]	AUC Brain ([1]; single IP dose 5 mg/kg, mice)	C max Brain ([1]; single IP dose 5 mg/kg, mice)	Tmax [1, 6]	AUC [1, 7]	Cmax [1, 7]	IC50 (Abl)	IC50 (DDR1/2)	inhibition of Src (SRC)	IC50 (SRC)	IC50 (c-Kit)	IC50 (PDGFR-α; read-out: IC50 PDGFR-α)	IC50 (PDGFR-β)	effect on total tau levels (in words) (APP mice; [9])	Insoluble human Aβ vs DMSO (in words) (APP mice; [9])	also measured
Oc1cccc(Nc2ccnc3cc(-c4cccc(CN5CCOCC5)c4)sc23)c1 [LCB-03-0110]												> 1 µM	0.006 µM		0.0013 µM	0.591 µM	0.069 µM	0.409 µM			Cmax ([1]; read-out: C max Plasma, single IP dose 1.25 mg/kg, mice): 2.35 µM; Cmax ([1]; read-out: C max Plasma, single IP dose 2.5 mg/kg, mice): 3.65 µM; AUC Brain [1, 5]: 0.2302; AUC Plasma [1, 5]: 2.805; C max Brain [1, 5]: 0.245 µM; Ratio (%) brain to plasma [1, 5]: 10%; T max Time [1, 5]: 1 h; AUC Brain ([1]; single IP dose 2.5 mg/kg, mice): 0.3152; AUC Plasma ([1]; single IP dose 2.5 mg/kg, mice): 6.482; C max Brain ([1]; single IP dose 2.5 mg/kg, mice): 0.445 µM; Ratio (%) brain to plasma ([1]; single IP dose 2.5 mg/kg, mice): 12%; T max Time ([1]; single IP dose 2.5 mg/kg, mice): 1 h
Cc1cn(-c2cc(NC(=O)c3ccc(C)c(Nc4nccc(-c5cnccn5)n4)c3)cc(C(F)(F)F)c2)cn1 [Radotinib]	medium-to-high	4 to 5 h							1 h	83.3 µM·h	24.4 µM	0.034 µM	< 0.18 µM	do not appear to inhibit Src	> 2 µM	> 1.3 µM	0.0755 µM	0.13 µM	no effect	significantly decreased	Kp [1, 6]: 0.05; AUC Brain ([1]; single IP dose 10 mg/kg, mice): 1.839; C max Brain ([1]; single IP dose 10 mg/kg, mice): 1.004 µM; α-syn levels, ELISA, compared to DMSO (A53T mice; [8]): no difference; α-syn levels, Western blot, compared to DMSO (A53T mice; [8]): no change; effect on phosphorylated tau levels (in words) (APP mice; [9]): no effect
